Patent US8273881B2, “Phenazine compounds and use thereof in autoimmune and inflammatory diseases” (JJ Pharma, Inc., priority 2007, dated 2012)

Assays:
Format in all cases: in vivo, DBA/1 LacJ mice
[1] = tested on: Type II collagen-induced arthritis (CIA) in mice; assay: Collagen-induced arthritis (CIA) mouse model, clinical assessment (involved paws, arthritis score); conditions: for arthritis score vs saline control treated mice (FIG. 2), overall statement: CIA mice, route not specified; for Day post the start of therapy from which a significant reduction (p<0.02) in arthritis score was achieved: each agent at its regimen, Formula III via i.p.
From the text: Type II collagen-induced arthritis (CIA) in mice is an accepted experimental model of arthritis with a number of pathological, immunological and genetic features in common with rheumatoid arthritis. This disease is induced by immunization of susceptible strains of mice with type II collagen, the major component of joint cartilage. A progressive, inflammatory arthritis develops in the majority of immunized animals, which is characterized clinically by erythema and edema, with affected paw width increases of typically 100%. A clinical scoring index has been developed to assess disease progression to joint distortion and spondylitis. […] Immunological laboratory findings include high antibody levels to type II collagen and hypergammaglobulinemia.
This study was designed to evaluate the anti-inflammatory and anti-arthritic activity of compound of Formula III using the CIA model by observing changes in immune parameters due to treatment. The animals were administered oral corticosteroid, Enbrel, an injectable TNF inhibitor, and compound of Formula III using both oral and parenteral delivery. Seventy-five DBA/1 LacJ mice 8-10 weeks of age were obtained from Jackson Labs and quarantined in our facility for 10 days prior to experimentation. All mice weighed >16 grams at the start of the experiment. Mice were pre-bled by retro-orbital puncture, and injected with 100 μg Bovine type II collagen in Freund's complete adjuvant (FCA) intradermally at the base of the tail. Mice were monitored by daily examination for the onset of disease. Mice that developed CIA between 20 days post immunization and 42 days post immunization were assigned to one of five treatment groups on a rotational basis (to normalize onset date), and ten mice were assigned to each group. For administration, compound of Formula III was solubilized in sterile saline. To facilitate drugs delivered by oral administration, carboxymethylcellulose was added to a final concentration of 4% in all gavage solutions. Compounds were administered according to the following schedule: • Group 1. 100 μl sterile saline vehicle injected intraperitoneally (i.p.)×3/week. • Group 2. 100 μl sterile saline containing compound of Formula III at 40 mg/kg injected i.p.×3/week. • Group 3. 100 μl sterile saline containing 100 μg Enbrel injected i.p.×3/week. • Group 4. 100 μl sterile saline containing compound of Formula III at 40 mg/kg gavaged×5/week.
Group 5. 100 μl sterile saline containing prednisolone 10 mg/kg gavaged×5/week.
Mice were weighed weekly, and overall health status noted. Arthritiic animals were clinically assessed by visual inspection five times per week, and paw swelling quantified by caliper measurements made three times per week, until seven weeks after the initial onset of arthritis. All animals were assessed individually from the time of disease onset, and the appropriate findings were entered into clinical report forms.

[2] = tested on: anti-type II collagen antibody; conditions: after seven weeks of treatment; for terminal anti-CII levels compared with control mice: p<0.01, prednisolone gavage, Formula III i.p.; for terminal anti-CII levels compared with titers at disease onset: prednisolone 10 mg/kg gavage, Formula III 40 mg/kg i.p.
Description: (§1) All mice were pre-bled prior to the start of the trial, subsequently at onset of arthritis and at the completion of the trial. Sera were separated and stored at −80° C. ELISA assays were performed to determine anti-type II collagen antibody levels and total immunoglobulin levels.
ELISA plates (Nunc-Immuno plates, Denmark) were coated with 100 μl of coating buffer (0.4M phosphate buffer ph7.6) containing 5 μg of type II collagen, at 4° C. overnight. Plates were washed 3 times with PBS containing 0.05% Tween 20 (Sigma, St. Louis, Mo.) and non specific binding was blocked by PBS containing 5% non fat milk overnight at 4° C. Mouse sera diluted to 1/100 in 5% milk/PBS was added to each well and incubated overnight at 4° C. Subsequently, the plates were washed six times in PBS containing 0.05% Tween-20 and incubated with alkaline phosphatase conjugated goat anti-mouse Ig (Southern Biotechnology Associates, Birmingham, Ala.) at 37° C. for 1 hour. Plates were washed 6 times again and developed for 40 minutes in the dark, using p-nitrophenyl phosphate (Sigma, St. Louis, Mo.) as a chromatogen substrate. The resulting optical density was measured at 405 nm by using a UV max spectrophotometer (Molecular Devices, CA). Negative pre-bleed control sera and a standard mouse anti-CII antiserum were titered on each plate to ensure uniformity of the assay. Antibody binding was expressed as OD405 units-blank.

total serum Ig = assay: ELISA of total serum immunoglobulin levels in CIA mice; conditions: prednisolone gavage; Formula III i.p.; vs control at disease onset or conclusion of trial
Description: as §1
Serum Ig levels was assessed using an ELISA assay. Dynatech Immulon I 96 well ELISA plates were coated with a 1/250 dilution of rabbit anti-mouse IgG (Axell) in PBS overnight at 4° C. Plates were washed ×3 with PBS containing 0.05% Tween, and blocked by the addition of 5% BSA in PBS. Serum samples diluted 1/400 in PBS/BSA was dispensed in triplicate, and a reference curve constructed by a doubling dilution titer of mouse Ig reference serum (Miles) from 1/500 to 1/256,000. The plate was incubated overnight at room temperature, and washed ×3 with PBS/Tween. One hundred μl of goat anti-IgG conjugated with alkaline phosphatase (Fisher-Biotek) (1:500 dilution in Milk/PBS/Tween) was added, and the incubation continued for 1 hour at 37° C. After washing×3 with PBS/Tween, 100 μl of paranitrophenyl phosphate solution (PNPP tablets, Sigma) in diethylolamine buffer was added to each well, and the reaction allowed to proceed for 20 minutes in the dark. The plate was read at 405 nm using a Photospectrometer (Molecular Devices), and the data analyzed using the SOFTmax analytical software package. […]

lymph node cells = assay: Lymph node cell mitogen and antigen proliferative responses (MTT) from treated CIA mice; conditions: lymphocytes from mice treated 40 mg/kg i.p.; p<0.05
Description: Spleen and lymph nodes were removed at sacrifice, and mitogen responses to Con A and LPS, and antigen proliferative responses to type II collagen were determined using standard techniques. Lymph nodes and spleens were harvested and 1 ml of cell suspension (2.5×10^6/ml) cultured in 12-well tissue culture plates (Costar, Corning, N.Y.) with various stimuli in complete RPMI-1640 medium. Cells were incubated for 3 days at 37° C. in a 5% CO2 atmosphere in the presence of mitogen or antigen. 20 µl of MTT (a mitochondrial enzyme substrate) solution (5 mg/ml; Sigma, St Louis, Mo.) was added per well. After 6 hours, the culture supernatant was discarded, and 200 µl of 10% SDS solution added to each well. After incubation at 37° C. overnight, the optical density at 590 nm was read using a microplate photospectrometer (Molecular Devices, CA). The mean and OD values, which provide a measure of cell proliferation, were recorded for each cell sample with respect to antigen stimulation. Antigen specific responses were expressed as (OD590 [Stimulated Culture]−OD590 [Spontaneous proliferation culture])/OD590 [Spontaneous proliferation culture].

Molecule	arthritis score vs saline control treated mice (FIG. 2), overall statement [1]	Day post the start of therapy from which a significant reduction (p<0.02) in arthritis score was achieved [1] [days]	number of involved (arthritic) paws vs control mice ([1]; prednisolone 10 mg/kg gavaged ×5/week, from Day 16 after arthritis onset throughout the study, p<0.002)	reduction in arthritis score vs saline control ([1]; prednisolone 10 mg/kg gavaged ×5/week, p<0.02 from Day 12, p<0.001 at day 17, sustained for remainder of trial)	terminal anti-CII levels compared with control mice [2]	terminal anti-CII levels compared with titers at disease onset [2]	total serum Ig levels at the terminal bleed vs control mice (total serum Ig)	number of involved paws vs control mice ([1]; 40 mg/kg i.p. ×3/week or gavaged ×5/week, irrespective of the route of administration)	reduction in arthritis score vs saline control ([1]; 40 mg/kg i.p. ×3/week, p<0.02 from Day 23, p<0.007 at Day 24, sustained until end of trial)	effect upon arthritis score vs saline control ([1]; 40 mg/kg oral gavage ×5/week)	lymph node cell response to LPS (lymph node cells)	number of involved (arthritic) paws vs control mice ([1]; 100 μg Enbrel i.p. ×3/week, Day 25 through Day 28, p<0.05)	reduction in arthritis score vs saline control ([1]; 100 μg Enbrel i.p. ×3/week, p<0.02 from Day 12, not sustained until 23 days of therapy)
C[C@]12C=CC(=O)C=C1CC[C@@H]1[C@@H]2[C@@H](O)C[C@@]2(C)[C@H]1CC[C@]2(O)C(=O)CO [prednisolone]	significantly reduced the arthritis score	12	significantly lower number of arthritic paws	significant reduction	significant reduction	minor decrease	this reduction was not significantly different						
COc1cccc2c1[n+]([O-])c1cccc(O)c1[n+]2[O-] [compound of Formula III]	marked effect upon the arthritis score	23			significant reduction	maintenance of titers equivalent to the levels at onset	this reduction was not significantly different	did not significantly influence the number of involved paws	significant reduction	did not exert a statistically significant effect	significant reduction		
Enbrel	significantly reduced the arthritis score	12										significantly lower number of arthritic paws	significant reduction
